Experimental data: patent US20260007758A1, “SO[…]-2 RECEPTOR (SST2R) NON-PEPTIDE DRUG CONJUGATES AND USES THEREOF” (Crinetics Pharmaceuticals, Inc., priority 2024, published 2026)
*1 amine or outer side, *2 acyl side, *3 side chain or, on linkers, in order; H or OH if unused. Where a SMILES comes first, the peptide text is derived from it. [ ]: non-standard residue; d: D form. The star is where a group is joined. X4 = Cc1cc(F)cc(-c2cnc(NCCNC(=O)CCOCCC(=O)*)c(-c3nc4ccc(Cl)cc4[nH]3)c2N2CCC(N)CC2)c1; X1 = Cc1cc(F)cc(-c2cnc(*)c(-c3nc4ccc(Cl)cc4[nH]3)c2N2CCC(N)CC2)c1; Dolaproine = CO[C@@H]([C@@H]1CCCN1)[C@@H](C)C(=O)O; Dil = CC[C@H](C)[C@H](NC)[C@@H](CC(=O)O)OC; PABC = O=C(OCc1ccc(N[*:1])cc1)[*:2]; X2 = C[C@@H](N*)[C@@H](O)c1ccccc1; Cit = NC(=O)NCCC[C@H](N)C(=O)O; PEG4 = NCCOCCOCCOCCOCCC(=O)O; NMeV = CN[C@H](C(=O)O)C(C)C; PEG1 = NCCOCCC(=O)O; βAla = NCCC(=O)O

Tests used:
Assay type in all cases: cell-based
[1] = molecular target: T1, human somatostatin receptor subtype 2 (Homo sapiens, UniProt P30874); assay: Functional assay for SSTR2 agonists (HTRF cAMP); details: CHO-K1 cells stably expressing human SST2; NKH477-stimulated cAMP; 20 min at 37 C; read-out: hSST2 cAMP Avg EC50
T1 construct: expressed in transfected cells
In short: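 Agonist activity read as fall in intracellular cAMP: HTRF 665/620 nm ratio regressed to a cAMP standard curve, EC50 fitted. Stable human SSTR2 CHO-K1 cells exposed 20 min at 37 °C to compound, final concentrations typically 0-10,000 nM.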

SST2 = molecular target: T2, SST2 (Homo sapiens, UniProt P30874); assay: PathHunter CHO-K1 SST2 Internalization Assay; details: PathHunter CHO-K1 SST2 cells; 90 min at 37 C; luminescence; read-out: Internalization EC50
T2 construct: host or cells: PathHunter CHO-K1 SST2 cells
In short: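 Four-parameter nonlinear fits of background-corrected luminescence (duplicate means) gave IC50s. NDCs were serially diluted 1:3 over 11 points from a 10 uM final top concentration and incubated 90 min at 37 C with human SST2 CHO-K1 cells plated 48 h earlier at 2500/well. Beta-Glo read-out developed 60 min at RT.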

[2] = test system: NCI-H524 human small cell lung cancer cells; assay: H524 assay: inhibition of cell proliferation (CellTiter Glo); details: 2 h treatment, washout, additional 70 h incubation
In short: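 Proliferation was measured by CellTiter Glo 70 h after a washout that followed a 2 h pulse of NDC. Doses were an 11-point, two-fold dilution series from 1 uM. IC50 was fitted with a four-parameter model to luminescence-based % inhibition relative to control cells.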

T2 sequence (P30874 whole entry): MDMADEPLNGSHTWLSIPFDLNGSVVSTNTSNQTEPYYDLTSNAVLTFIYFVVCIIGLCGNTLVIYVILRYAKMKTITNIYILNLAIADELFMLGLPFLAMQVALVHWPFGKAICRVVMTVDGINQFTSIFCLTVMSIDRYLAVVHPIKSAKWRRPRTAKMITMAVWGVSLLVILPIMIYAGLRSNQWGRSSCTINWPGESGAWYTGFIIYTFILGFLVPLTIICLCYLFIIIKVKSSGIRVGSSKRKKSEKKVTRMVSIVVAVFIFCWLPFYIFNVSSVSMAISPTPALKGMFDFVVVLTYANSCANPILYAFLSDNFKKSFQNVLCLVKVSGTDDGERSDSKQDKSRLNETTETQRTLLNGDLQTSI
T1 sequence (P30874 whole entry): as above

CC[C@H](C)[C@@H]([C@@H](CC(=O)N1CCC[C@H]1[C@H](OC)[C@@H](C)C(=O)N[C@H](C)[C@@H](O)c1ccccc1)OC)N(C)C(=O)[C@@H](NC(=O)[C@H](C(C)C)N(C)C(=O)OCc1ccc(NC(=O)[C@H](CCCNC(N)=O)NC(=O)[C@@H](NC(=O)[C@H](NC(=O)CCOCCC(=O)NCCNc2ncc(-c3cc(C)cc(F)c3)c(N3CCC(N)CC3)c2-c2nc3ccc(Cl)cc3[nH]2)c2cnn(C)c2)C(C)C)c(OCC(=O)O)c1)C(C)C [Compound 204]
EC50 [1]: 0.14 nM | EC50 (SST2): 9.2 nM | EC50 [2]: 30 nM

CC[C@H](C)[C@@H]([C@@H](CC(=O)N1CCC[C@H]1[C@H](OC)[C@@H](C)C(=O)N[C@H](C)[C@@H](O)c1ccccc1)OC)N(C)C(=O)[C@@H](NC(=O)[C@H](C(C)C)N(C)C(=O)OCc1ccc(NC(=O)[C@H](CCCNC(N)=O)NC(=O)[C@@H](NC(=O)CCOCCC(=O)NCCNc2ncc(-c3cc(C)cc(F)c3)c(N3CCC(N)CC3)c2-c2nc3ccc(Cl)cc3[nH]2)C(C)C)c(OC)c1)C(C)C [Compound 11]
EC50 [1]: 0.33 nM | EC50 (SST2): 10 nM | EC50 [2]: 14 nM

CC[C@H](C)[C@@H]([C@@H](CC(=O)N1CCC[C@H]1[C@H](OC)[C@@H](C)C(=O)N[C@H](C)[C@@H](O)c1ccccc1)OC)N(C)C(=O)[C@@H](NC(=O)[C@H](C(C)C)N(C)C(=O)OCc1ccc(NC(=O)[C@H](CCCNC(N)=O)NC(=O)[C@@H](NC(=O)CCOCCOCCOCCOCCNC(=O)CCNc2ncc(-c3cc(C)cc(F)c3)c(N3CCC(N)CC3)c2-c2nc3ccc(Cl)cc3[nH]2)C(C)C)cc1)C(C)C [Compound 196] ({X1-βAla-PEG4}-V[Cit][PABC][NMeV]V[Dil][Dolaproine]-X2)
EC50 [1]: 0.29 nM | EC50 (SST2): 8.6 nM | EC50 [2]: 28 nM

CC[C@H](C)[C@@H]([C@@H](CC(=O)N1CCC[C@H]1[C@H](OC)[C@@H](C)C(=O)N[C@H](C)[C@@H](O)c1ccccc1)OC)N(C)C(=O)[C@@H](NC(=O)[C@H](C(C)C)N(C)C(=O)OCc1ccc(NC(=O)[C@H](CCCNC(N)=O)NC(=O)[C@@H](NC(=O)CCOCCC(=O)N(C)CC(=O)NCCNc2ncc(-c3cc(C)cc(F)c3)c(N3CCC(N)CC3)c2-c2nc3ccc(Cl)cc3[nH]2)C(C)C)c(O[C@@H]2O[C@H](C(=O)NCCN(C)C)[C@@H](O)[C@H](O)[C@H]2O)c1)C(C)C [Compound 215]
EC50 [1]: 0.14 nM | EC50 (SST2): 7.8 nM | EC50 [2]: 5 nM

CC[C@H](C)[C@@H]([C@@H](CC(=O)N1CCC[C@H]1[C@H](OC)[C@@H](C)C(=O)N[C@H](C)[C@@H](O)c1ccccc1)OC)N(C)C(=O)[C@@H](NC(=O)[C@H](C(C)C)N(C)C(=O)OCc1ccc(NC(=O)[C@H](C)NC(=O)[C@@H](NC(=O)CCOCCOCCOCCOCCC(=O)NCCNc2ncc(-c3cc(C)cc(F)c3)c(N3CCC(N)CC3)c2-c2nc3ccc(Cl)cc3[nH]2)C(C)C)cc1C(=O)NCC(=O)O)C(C)C [Compound 69]
EC50 [1]: 0.16 nM | EC50 (SST2): 5.6 nM | EC50 [2]: 36 nM

CC[C@H](C)[C@@H]([C@@H](CC(=O)N1CCC[C@H]1[C@H](OC)[C@@H](C)C(=O)N[C@H](C)[C@@H](O)c1ccccc1)OC)N(C)C(=O)[C@@H](NC(=O)[C@H](C(C)C)N(C)C(=O)OCc1ccc(NC(=O)[C@H](C)NC(=O)[C@@H](NC(=O)CCOCCC(=O)NCCNc2ncc(-c3cc(C)cc(F)c3)c(N3CCC(N)CC3)c2-c2cc3ccc(OC)cc3[nH]2)C(C)C)c(O[C@@H]2O[C@H](C(=O)O)[C@@H](O)[C@H](O)[C@H]2O)c1)C(C)C [Compound 117]
EC50 [1]: 0.46 nM | EC50 (SST2): 19 nM | EC50 [2]: 58 nM

CC[C@H](C)[C@@H]([C@@H](CC(=O)N1CCC[C@H]1[C@H](OC)[C@@H](C)C(=O)N[C@H](C)[C@@H](O)c1ccccc1)OC)N(C)C(=O)[C@@H](NC(=O)[C@H](C(C)C)N(C)C(=O)OCc1ccc(NC(=O)[C@H](CCCNC(N)=O)NC(=O)[C@@H](NC(=O)c2cc(NCCC(=O)NCCNc3ncc(-c4cc(C)cc(F)c4)c(N4CCC(N)CC4)c3-c3nc4ccc(Cl)cc4[nH]3)cc(C(=O)NCC(=O)O)c2)C(C)C)cc1)C(C)C [Compound 157]
EC50 [1]: 0.45 nM | EC50 (SST2): 20 nM | EC50 [2]: 95 nM

CC[C@H](C)[C@@H]([C@@H](CC(=O)N1CCC[C@H]1[C@H](OC)[C@@H](C)C(=O)N[C@H](C)[C@@H](O)c1ccccc1)OC)N(C)C(=O)[C@@H](NC(=O)[C@H](C(C)C)N(C)C(=O)OCc1ccc(NC(=O)[C@H](CCCNC(N)=O)NC(=O)[C@@H](NC(=O)c2cc(NCCOCCC(=O)NCCNc3ncc(-c4cc(C)cc(F)c4)c(N4CCC(N)CC4)c3-c3nc4ccc(Cl)cc4[nH]3)cc(C(=O)NCC(=O)O)c2)C(C)C)cc1)C(C)C [Compound 185]
EC50 [1]: 0.19 nM | EC50 (SST2): 2.6 nM | EC50 [2]: 1100 nM

CC[C@H](C)[C@@H]([C@@H](CC(=O)N1CCC[C@H]1[C@H](OC)[C@@H](C)C(=O)N[C@H](C)[C@@H](O)c1ccccc1)OC)N(C)C(=O)[C@@H](NC(=O)[C@H](C(C)C)N(C)C(=O)OCc1ccc(NC(=O)[C@H](CCCNC(N)=O)NC(=O)[C@@H](NC(=O)CCOCCNC(=O)[C@H](CCC(=O)O)NC(=O)[C@H](CCC(N)=O)NC(=O)CCOCCC(=O)NCCNc2ncc(-c3cc(C)cc(F)c3)c(N3CCC(N)CC3)c2-c2nc3ccc(Cl)cc3[nH]2)C(C)C)cc1)C(C)C [Compound 191] (X4-QE[PEG1]V[Cit][PABC][NMeV]V[Dil][Dolaproine]-X2)
EC50 [1]: 1.9 nM | EC50 (SST2): 38 nM | EC50 [2]: 1700 nM

CC[C@H](C)[C@@H]([C@@H](CC(=O)N1CCC[C@H]1[C@H](OC)[C@@H](C)C(=O)N[C@H](C)[C@@H](O)c1ccccc1)OC)N(C)C(=O)[C@@H](NC(=O)[C@H](C(C)C)N(C)C(=O)OCc1ccc(NC(=O)[C@H](CCCNC(N)=O)NC(=O)[C@@H](NC(=O)C[C@@H](N)C(=O)NCCOCCC(=O)NCCNc2ncc(-c3cc(C)cc(F)c3)c(N3CCC(N)CC3)c2-c2nc3ccc(Cl)cc3[nH]2)C(C)C)c(O[C@@H]2O[C@H](C(=O)N[C@@H](CCCCNC(=O)CCCCc3ccc(I)cc3)C(=O)O)[C@@H](O)[C@H](O)[C@H]2O)c1)C(C)C [Compound 211]
EC50 [1]: 0.19 nM | EC50 (SST2): 3.2 nM | EC50 [2]: 89 nM

CC[C@H](C)[C@@H]([C@@H](CC(=O)N1CCC[C@H]1[C@H](OC)[C@@H](C)C(=O)N[C@H](C)[C@@H](O)c1ccccc1)OC)N(C)C(=O)[C@@H](NC(=O)[C@H](C(C)C)N(C)C(=O)OCc1ccc(NC(=O)[C@H](CCCNC(N)=O)NC(=O)[C@@H](NC(=O)[C@H](CCC(=O)O)NC(=O)CCOCCC(=O)NCCNc2ncc(-c3cc(C)cc(F)c3)c(N3CCC(N)CC3)c2-c2nc3ccc(Cl)cc3[nH]2)C(C)C)cc1C(F)(F)F)C(C)C [Compound 2]
EC50 [1]: 0.57 nM | EC50 (SST2): 8.6 nM | EC50 [2]: 2500 nM

CC[C@H](C)[C@@H]([C@@H](CC(=O)N1CCC[C@H]1[C@H](OC)[C@@H](C)C(=O)N[C@H](C)[C@@H](O)c1ccccc1)OC)N(C)C(=O)[C@@H](NC(=O)[C@H](C(C)C)N(C)C(=O)OCc1ccc(NC(=O)[C@H](CCCNC(N)=O)NC(=O)[C@@H](NC(=O)c2cc(NCCOCCC(=O)NCCNc3ncc(-c4cc(C)cc(F)c4)c(N4CCC(N)CC4)c3-c3nc4ccc(Cl)cc4[nH]3)cc(C(=O)NCCN(CC(=O)O)CC(=O)O)c2)C(C)C)cc1)C(C)C [Compound 189]
EC50 [1]: 0.4 nM | EC50 (SST2): 7.6 nM | EC50 [2]: 2200 nM

CC[C@H](C)[C@@H]([C@@H](CC(=O)N1CCC[C@H]1[C@H](OC)[C@@H](C)C(=O)N[C@H](C)[C@@H](O)c1ccccc1)OC)N(C)C(=O)[C@@H](NC(=O)[C@H](C(C)C)N(C)C(=O)OCc1ccc(NC(=O)[C@H](CCCNC(N)=O)NC(=O)[C@@H](NC(=O)c2cc(NCCOCCC(=O)NCCNc3ncc(-c4cc(C)cc(F)c4)c(N4CCC(N)CC4)c3-c3nc4ccc(Cl)cc4[nH]3)cc(C(=O)NCCN)c2)C(C)C)cc1)C(C)C [Compound 184]
EC50 [1]: 0.063 nM | EC50 (SST2): 1.8 nM | EC50 [2]: 240 nM

CC[C@H](C)[C@@H]([C@@H](CC(=O)N1CCC[C@H]1[C@H](OC)[C@@H](C)C(=O)N[C@H](C)[C@@H](O)c1ccccc1)OC)N(C)C(=O)[C@@H](NC(=O)[C@H](C(C)C)N(C)C(=O)OCc1ccc(NC(=O)[C@H](CCCNC(N)=O)NC(=O)[C@@H](NC(=O)CCCCCCCCNc2ncc(-c3cc(C)cc(F)c3)c(N3CCC(N)CC3)c2-c2nc3ccc(Cl)cc3[nH]2)C(C)C)c(O[C@@H]2O[C@H](C(=O)NCC(=O)O)[C@@H](O)[C@H](O)[C@H]2O)c1)C(C)C [Compound 193]
EC50 [1]: 0.87 nM | EC50 (SST2): 3.8 nM | EC50 [2]: 32 nM

CC[C@H](C)[C@@H]([C@@H](CC(=O)N1CCC[C@H]1[C@H](OC)[C@@H](C)C(=O)N[C@H](C)[C@@H](O)c1ccccc1)OC)N(C)C(=O)[C@@H](NC(=O)[C@H](C(C)C)N(C)C(=O)OCc1ccc(NC(=O)[C@H](C)NC(=O)[C@@H](NS(=O)(=O)C[C@H](C)NC(=O)CCOCCC(=O)NCCNc2ncc(-c3cc(C)cc(F)c3)c(N3CCC(N)CC3)c2-c2nc3ccc(Cl)cc3[nH]2)C(C)C)c(O[C@@H]2O[C@H](C(=O)N(C)CC(=O)O)[C@@H](O)[C@H](O)[C@H]2O)c1)C(C)C [Compound 221]
EC50 [1]: 0.15 nM | EC50 (SST2): 8.8 nM | EC50 [2]: 27 nM
